Laboratory results as given in ChEMBL document CHEMBL4270572, “Synthesis and biological evaluation of novel larotaxel analogues” (Eur J Med Chem, 2018).

What was measured:
in vivo [1] = conditions: beagle, dog, iv, 0.6 mg/kg
in vivo [2] = conditions: beagle, dog, iv, 1.2 mg/kg
in vivo [3] = conditions: beagle, dog, iv, 2.4 mg/kg
in vivo [4] = conditions: beagle, dog, iv, 2.4 mg/kg; remark: listed apart in the source
in vivo [5] = conditions: beagle, dog, iv, 1.2 mg/kg; remark: listed apart in the source
in vivo [6] = conditions: beagle, dog, iv, 0.6 mg/kg; remark: listed apart in the source
in vivo [7] = conditions: beagle, dog, iv, 2.4 mg/kg; remark: listed apart in the source
in vivo [8] = conditions: beagle, dog, iv, 1.2 mg/kg; remark: listed apart in the source
in vivo [9] = conditions: beagle, dog, iv, 0.6 mg/kg; remark: listed apart in the source
in vivo [10] = conditions: beagle, dog, iv, 1.2 mg/kg; remark: listed apart in the source
in vivo [11] = conditions: beagle, dog, iv, 0.6 mg/kg; remark: listed apart in the source
in vivo [12] = conditions: beagle, dog, iv, 2.4 mg/kg; remark: listed apart in the source

CC(=O)O[C@H]1C(=O)[C@]23C[C@H]2C[C@H]2OC[C@@]2(OC(C)=O)[C@H]3[C@H](OC(=O)c2ccccc2)[C@]2(O)C[C@H](OC(=O)[C@H](O)[C@H](CC(C)C)NC(=O)OC(C)(C)C)C(C)=C1C2(C)C
Tmax (in vivo [1]): 0.89 h
Vd (in vivo [2]): 34.8 L/kg
half-life (in vivo [3]): 8.35 h
Tmax (in vivo [4]): 0.97 h
Tmax (in vivo [5]): 0.81 h
Cmax (in vivo [6]): 0.0671 µg/mL
Cmax (in vivo [7]): 0.974 µg/mL
half-life (in vivo [8]): 11.2 h
half-life (in vivo [9]): 6.06 h
Cmax (in vivo [10]): 0.388 µg/mL
Vd (in vivo [11]): 45.6 L/kg
Vd (in vivo [12]): 30.8 L/kg
